Assay results from ChEMBL document CHEMBL5360664, “Design, Construction, and Screening of Diversified Pyrimidine-Focused DNA-Encoded Libraries” (ACS Med Chem Lett, 2023).

Assays:
[1] = target: T1, Bromodomain-containing protein 4 (Homo sapiens, UniProt O60885); assay: Binding affinity to human recombinant BRD4BD1 (44 to 168 residues) expressed in Escherichia coli […] (DE3) by fluorescence polarization analysis
[2] = target: T1, Bromodomain-containing protein 4; assay: Binding affinity to human recombinant BRD4BD2 (333 to 460 residues) expressed in Escherichia coli […] (DE3) by fluorescence polarization analysis

| Ki [1] | Ki [2] | SMILES |
| --- | --- | --- |
| 760 nM | > 100000 nM | CNc1cc(-c2ccc(=O)n(C)c2)nc(NCc2ccc(OC(F)(F)F)cc2)n1 |
| 680 nM | > 100000 nM | CNc1cc(-c2ccc(=O)n(C)c2)nc(NCc2cccc3ccccc23)n1 |
| 910 nM | 1440 nM | CNc1nc(NCc2cccc(-c3ccc(=O)n(C)c3)c2)cc(-c2ccc(=O)n(C)c2)n1 |
